Results: EP2949653A1, “ISOXAZOLE DERIVATIVES AS LEUKOTRIENE BIOSYNTHESIS INHIBITORS” (Banoglu, Erden, priority 2014, dated 2015)
Where two headings read alike, the source gives them in different places.

Experiments:
[1] = tested on: 5-LO mediated product formation; assay: 5-LO mediated product formation in intact neutrophils stimulated with A23187 (cell-based); design: species or system human; conditions: for IC50: Neutrophil, intact human neutrophils stimulated with 2.5 µM A23187, mean ± SE, n = 3-4, read-out: Inhibition of purified 5-LO activity IC50 (µM) cell based; for activity at 1 µM / activity at 10 µM: PMNL, human neutrophils, 2.5 µM A23187, means ± SE, n = 3-6; for activity at 1 µM: remaining activity at 1 µM inhibitor, read-out: 5-LO mediated product formation in intact neutrophils (PMNL) (% of control) at 1 µM; for activity at 10 µM: remaining activity at 10 µM inhibitor, read-out: 5-LO mediated product formation in intact neutrophils (PMNL) (% of control) at 10 µM
Description: (§1) Cell based and cell-free assays carried out in biological studies, immunofluorescence microscopy analysis and zymosan-induced peritonitis in mice are performed as described hereinabove (Pegola, C. and et al., British J. Pharmacology, 2014, D01:10.1111/bph.12625). In the cell based assays (intact neutrophils or monocytes), 5-LO mediated product formation is started, after pre-incubation with test compounds (or control DMSO) for 15 min. at 37 °C, with addition of Ca-ionophore A23187 (2.5 µM) to the fresh 5 x 10^6 neutrophils or monocytes suspended in 1 ml of PGC buffer (phosphate buffered saline (PBS) solution containing 1 mg ml^-1 glucose and 1mM CaCl2, pH 7.4). After the incubation for 10 min. at 37 °C, the reaction is ended with addition of 1 ml of methanol, and 30 µL 1 N HCl, 200 ng prostaglandin B1 and 500 µL PBS are added to the mixture. In cell-free assays (isolated 5-LO and cell homogenates), human recombinant 5-LO protein or 40,000g supernatant is added to 1 ml of 5-LO reaction mixture (PBS, pH 7.4, 1 mM EDTA, 1 mM ATP), and then incubated with test compounds (or control DMSO) for 10 min. at 4°C, heated to 37 °C and 2 mM CaCl2 as well as AA at certain concentrations are added. The reaction is ended as described for the cell-based assays. Resulting 5-LO mediated products are extracted and analysed by the known method of high pressure liquid chromatography (HPLC) (Pergola, C. Proc Natl. Acad. Sci. U.S.A. 2008, 105, 19881). 5-LO mediated product formation (LTB4 and all trans isomers, and 5 (S)-hydro(pero)xy-6-trans-8, 11, 14-cis-eicosatetraenoic acid, 5-H(p)ETE) is expressed as ng per 10^6 cell. Cysteinyl-LTs have not been analyzed because that the amount of C4, D4 and E4 and LTB4 oxidation products are below the detection limit.
(§2) Compounds were tested in intact human neutrophils stimulated with 2.5 µM A23187 under cell based conditions and on purified 5-LO under cell free conditions. ^aData are given as remaining activity as a percentage of control (100%) at 10 µM or 1 µM inhibitor concentrations (means ± SE, n = 3-6).
Compound 9hj inhibited 5-LO mediated product formation with IC50 of 60 nM in human neutrophils. Neutrophils are stimulated with Ca-ionophore A23187 (2.5 µM), without the addition of exogenous arachidonic acid (AA), after pre-incubation with 9hj or vehicle (0.1 % DMSO). 100% controls correspond to 275.7 ng mL^-1 of 5-LO mediated products (Figure 1).
100% controls correspond to 328.97 ng mL^-1 of 5-LO mediated products.

[2] = molecular target: T1, purified 5-LO (Homo sapiens, UniProt P09917); assay: Purified / human recombinant 5-LO activity (cell-free); type: biochemical; conditions: purified 5-LO under cell free conditions; mean ± SE, n = 3-4; read-out: Inhibition of purified 5-LO activity IC50 (µM) cell-free
T1 sequence (P09917 1-674): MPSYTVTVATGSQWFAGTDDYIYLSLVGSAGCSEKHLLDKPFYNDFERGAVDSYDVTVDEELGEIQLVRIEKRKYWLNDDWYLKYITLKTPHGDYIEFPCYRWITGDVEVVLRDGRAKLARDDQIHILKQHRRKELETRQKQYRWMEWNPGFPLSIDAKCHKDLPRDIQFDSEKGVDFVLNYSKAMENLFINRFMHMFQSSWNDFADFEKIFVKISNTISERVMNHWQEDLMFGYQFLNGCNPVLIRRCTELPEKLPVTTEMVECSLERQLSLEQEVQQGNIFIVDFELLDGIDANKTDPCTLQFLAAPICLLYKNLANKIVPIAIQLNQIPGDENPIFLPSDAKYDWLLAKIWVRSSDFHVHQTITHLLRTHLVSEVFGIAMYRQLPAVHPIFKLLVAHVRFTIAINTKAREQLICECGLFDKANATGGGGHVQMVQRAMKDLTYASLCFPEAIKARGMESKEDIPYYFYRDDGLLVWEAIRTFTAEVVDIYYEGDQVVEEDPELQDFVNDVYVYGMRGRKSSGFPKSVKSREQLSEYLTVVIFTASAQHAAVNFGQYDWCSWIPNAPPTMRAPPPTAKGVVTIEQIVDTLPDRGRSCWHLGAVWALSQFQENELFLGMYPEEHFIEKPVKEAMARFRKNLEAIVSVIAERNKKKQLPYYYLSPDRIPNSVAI
Description: as §1, §2
9hj was added 15 min before addition of 2 mM Ca^2+ plus 3 µM, 10 µM and 30 µM AA. 100% controls correspond to 200.35 ng mL^-1 for 3 µM AA, 514.36 ng mL^-1 for 10 µM AA and 537.73 ng mL^-1 for 30 µM AA.

[3] = molecular target: T1, purified 5-LO; assay: as above; type: biochemical; conditions: remaining 5-LO activity (percentage of uninhibited control) at 30 µM test compound
[4] = tested on: 5-LO mediated product formation; conditions: literature value, Banoglu et al. Bioorg. Med. Chem. 2012, 20, 3728; read-out: IC50PMNL (cell-based assay); cited from earlier work
[5] = molecular target: T1, purified 5-LO; conditions: literature value, Banoglu et al. Bioorg. Med. Chem. 2012, 20, 3728; read-out: IC50cell-free; cited from earlier work

| Compound | IC50 [1] [µM] | activity at 1 µM [1] [%] | activity at 10 µM [1] [%] | IC50 [2] [µM] | remaining activity at 30 µM [3] [%] | IC50 [4] [µM] | IC50 [5] [µM] |
| --- | --- | --- | --- | --- | --- | --- | --- |
| Cc1cc(OCc2ccccc2Cl)ccc1-c1onc(C(=O)O)c1-c1ccc(Cl)cc1 [Compound 9ek, 5-(4-((2-Chlorobenzyl)oxy)-2-methylphenyl)-4-(4-chlorophenyl)isoxazole-3-carboxylic acid] | 1.45 ± 0.09 | 54.9 ± 6.46 | 2.86 ± 2.59 | > 30 | 51 |  |  |
| Cc1cc(OCc2ccc3ccccc3n2)ccc1-c1onc(C(=O)O)c1-c1ccc(Cl)cc1 [Compound 9hk, 4-(4-Chlorophenyl)-5-(2-methyl-4-(quinolin-2-ylmethoxy)phenyl)isoxazole-3-carboxylic acid] | 9.07 ± 1.98 | 69.1 ± 5.53 | 44.2 ± 15.7 | > 30 | 75 |  |  |
| Cc1ccccc1COc1ccc(-c2onc(C)c2-c2ccc(Cl)cc2)c(O)c1 [Compound A, reference compound] | 4.42 ± 1.13 | 66.7 ± 11.5 | 3 ± 0.7 | 1.9 ± 0.46 |  | 4.4 | 1.9 |
